Assay results as given in patent publication US20260355357A1, “DIAGNOSTIC AGENTS AND USES THEREOF” (HADASIT MEDICAL RESEARCH SERVICES AND DEVELOPMENT LTD., priority 2023, published 2026).
Values joined by “and” are separate entries in the source; they are usually repeats but may differ in a detail not shown here. Equal entries are not always repeated. Where two headings read alike, the source gives them in different places. Marks after values point to notes of the source that are not given here. Blank lines part the entries; values can stand above or below the compound they belong to.

What was measured:
[1] = Deuteron T1 determined by Inversion Recovery technique (5.8T, saline); type: physicochemical; settings: for T1 relaxation time of deuterons at D site / HDO T1: 5.8T, saline
Experimental: Example 1: Determinations of Deuterons T1 in Sugar Molecules
Table 1 describes the difference in T1 of deuterons in water (HDO, natural abundance) and in sites labelled with deuterons in various molecules that were determined using an Inversion Recovery technique. […] PGP-47 TI

brain slices = assay: [6,6-D2]D-glucose uptake and metabolism in perfused brain slices, deuterium NMR; type: in vitro ADME, rat (male Sprague-Dawley); settings: for D-Glc before 1st ischemia: group A; for Minimum D-Glc during 1st ischemia: group B, 10 min perfusion arrest; for Maximal difference of D-Glc before and during 1st ischemia: group B′; for D-Glc in between ischemic conditions: group C; for Minimum D-Glc during 2nd ischemia: group D; for Maximal difference of D-Glc before and during 2nd ischemia: group D′; for D-Glc after 2nd ischemic condition: group E; for D-Lac before 1st ischemia: group F; for Maximal D-Lac during 1st ischemia: group G; for D-Lac in between ischemic conditions: group H; for Maximal D-Lac during 2nd ischemia: group I; for D-Lac after 2nd ischemic condition: group J
From the text: Male Sprague-Dawley rats (n=4, 70-100 g) were obtained from the Hebrew University Authority of Biological and Biomedical Models. The joint ethics committee (IACUC) of the Hebrew University and Hadassah Medical Center approved the study protocol for animal welfare. The Hebrew University is an AAALAC International accredited institute. Care was taken to minimize the animals' pain and discomfort. Animals were housed in the animal facilities 3-5 days after delivery for acclimatization and fed ad libitum. On the experimental day, animals were transferred to the laboratory and anesthetized within one hour of arrival.
To improve the health of acute brain slices obtained from mature adult rats, we modified a slice preparation technique optimized for in vitro electrophysiology in mature adult rat brain slices. In brief, slice health is improved by a so-called “protective recovery” method. NMDG is an extracellular replacer of sodium ions that prevents sodium ions and water influx into cells, the primary insult causing cell death following brain slicing. […] Furthermore, incubation in HEPES-buffered artificial cerebrospinal fluid (aCSF) improved slice health. The following solutions were prepared in the current study, and their use is described in the sections below.
NMDG-aCSF was used for transcardial perfusion, tissue slicing, and slice recovery. This medium contained 93 mM NMDG, 2.5 mM KCl, 1.2 mM NaH2PO4, 26 mM NaHCO3, 20 mM HEPES, 25 mM D-glucose, 10 mM MgSO4, 0.5 mM CaCl2, 5 mM ascorbic acid, 2 mM thiourea, and 3 mM pyruvic acid in double distilled water.
HEPES-holding aCSF was used to incubate slices following the surgical procedure. This medium contained 84 mM NaCl, 2.5 mM KCl, 1.2 mM NaH2PO4, 30 mM NaHCO3, 20 mM HEPES, 25 mM Glc (D-glucose, non-labeled), 2 mM MgSO4, 2 mM CaCl2, 5 mM ascorbic acid, 2 mM thiourea, and 3 mM pyruvic acid in double distilled water.
Perfusion aCSF was used for perfusion in the NMR spectrometer. This medium contained 115 mM NaCl, 2.5 mM KCl, 1.2 mM NaH2PO4, 24 mM NaHCO3, 5 mM HEPES, 10 mM Glc (to be replaced with 10 mM D-Glc), 2 mM MgSO4, and 2 mM CaCl2 in double distilled water.
All three solutions (1-3) were bubbled with 95%/5% O2/CO2 for at least one hour before use and titrated to a pH of 7.35-7.45 using HCl or NaOH. All concentrations were optimized for a calculated osmolarity of 310±15 mOsm.
Brain slices were extracted and maintained using the above solutions as previously described. Briefly, the rats were anesthetized using a gas anesthesia system (Somnosuite, Kent Scientific, Torrington, CT, USA). Induction was performed in a chamber with 3.5% isoflurane in room air with a flow rate of 440 mL/min. Following 4-7 min of induction, anesthesia was maintained with 3.1-3.2% isoflurane at the same flow rate. Upon obtaining a negative pedal pain reflex, surgery was initiated. First, the diaphragm was exposed and cut, and the rat was transcardially perfused with 30 mL of ice-cold NMDG-aCSF (Solution 1). The animals were then sacrificed by decapitation, and the brain was rapidly removed and placed in ice-cold NMDG-aCSF (Solution 1). The cerebrum was then cut into four parts (first, a sagittal cut along the hemispheric cleft and then a sagittal cut in the middle of each hemisphere). From each part, 350 μm slices were prepared using a McIlwain tissue chopper (The Mickle Laboratory Engineering Company Ltd., Surrey, UK). The process of brain extraction, from decapitation till the brain was in ice-cold NMDG-aCSF, took under 2 min, and the slicing procedure was done in less than 10 min. After cutting, the slices were transferred to warm, 32-34 °C, NMDG-aCSF (Solution 1) for 12 min for protective recovery. Then, the slices were transferred to HEPES-holding aCSF (Solution 2) at ~32 °C for 15-40 min incubation before transfer to the NMR spectrometer, where the slices were perfused with the aCSF of Solution 3. […]

[2] = Biodistribution of deuterated 2-deoxy-D-glucose, 2H-NMR of tissue extracts, mice; type: in vivo, mouse; settings: [D2]DDG bolus i.v., 169-182 mg/kg (non-labeled 2DG equivalent)
Experimental: (§1) Mice and rats, males and females at equal numbers, were intravenously injected with a bolus of varying doses of deuterated 2-deoxy-D-glucose (2-DG, DDG, with varying numbers and positions of deuteration). DDGs were provided by CortecNet, France. The injection was performed under sedation in all rats (18) and in 12 of 18 mice, after which the animals woke up within 1 minute. […] Further to euthanasia, the brain, liver, kidneys, heart, and muscle were excised and immediately placed in liquid nitrogen. The frozen tissue samples were kept at −80 °C until further processing.
Extraction of the water-soluble metabolites and the lipids was carried out using the dual-phase extraction procedure as described previously [Katz-Brull R, et al. Differential routing of choline in implanted breast cancer and normal organs. Article. Magnetic Resonance in Medicine. July 2001; 46(1):31-38. doi:10.1002/mrm.1157]. Briefly, a frozen sample is placed in 10 mL of ice-cold methanol containing 0.4 mM phenyl phosphonic acid for at least 1 hour. The tissue is then homogenized in ice-cold methanol using a tissue homogenizer. Equal volumes of chloroform and water are then added to the sample tube, and the mixture is vortexed and vigorously shaken. The samples are allowed to stand at 4 °C for at least 24 hours for phase separation. The methanol-water phase is aspirated, treated with Chelex to remove divalent ions, and then lyophilized for at least 24 hours. When the samples are dry (as powder), they are redissolved in 0.5 mL of double-distilled water and transferred to 5-mm NMR tubes for scanning. The samples are scanned in a 9.4 T NMR spectrometer.

[3] = Adverse effects after bolus intravenous injection of DDG, mice; type: in vivo, mouse; settings: bolus i.v., 37 mg/kg to 248 mg/kg (mice and rats), awake up to 78 min
Experimental: as §1
(§2) The animals were observed awake for up to 78 min after the injection. The injection bolus was administered in less than 1 s and ranged from 0.1 mL for mice (ca. 25-40 g) to 0.6 mL for rats (ca. 120-160 g).

[4] = Adverse effects after bolus intravenous injection of DDG, rats; type: in vivo, rat; settings: bolus i.v., 37 mg/kg to 248 mg/kg (mice and rats), awake up to 78 min
Experimental: as §1, §2

[5] = position 1 (aliphatic), 16-17 °C
[6] = position 2 (aliphatic), 16-17 °C

T1 relaxation time of deuterons at D site ([1]; aliphatic, 16-17 °C): 53 ^c ms
time for return to baseline level upon reperfusion (brain slices; after 1st ischemic condition): ≤ 8 min
time for return to baseline level upon reperfusion (brain slices; after 2nd ischemic condition): ≤ 8 min
time for D-Glc signal to reach plateau (brain slices; after administration of D-Glc to perfusion medium): ≤ 6 min
maximal decrease in the D-Glc concentration (brain slices; both ischemic conditions, n=6): 4.3 ± 0.9 mM
conversion of available D-Glc (brain slices; during the ischemic conditions): fully converted to D-Lac
D-Glc before 1st ischemia (brain slices; average ± SD, n=3): 8.6 ± 0.7 mM
D-Glc before 1st ischemia (brain slices; individual animals): 9.3 mM and 8.8 mM and 7.6 mM
Minimum D-Glc during 1st ischemia (brain slices; average ± SD, n=3): 4.6 ± 1.5 mM
Minimum D-Glc during 1st ischemia (brain slices; individual animals): 4.7 mM and 6.4 mM and 2.8 mM
Maximal difference of D-Glc before and during 1st ischemia (brain slices; average ± SD, n=3): 3.9 ± 1.3 mM
Maximal difference of D-Glc before and during 1st ischemia (brain slices; individual animals): 4.6 mM and 2.4 mM and 4.8 mM
D-Glc in between ischemic conditions (brain slices; average ± SD, n=3): 8.7 ± 0.7 mM
D-Glc in between ischemic conditions (brain slices; individual animals): 9.5 mM and 8.6 mM and 7.9 mM
Minimum D-Glc during 2nd ischemia (brain slices; average ± SD, n=3): 4.1 ± 0.5 mM
Minimum D-Glc during 2nd ischemia (brain slices; individual animals): 4.6 mM and 4.2 mM and 3.4 mM
Maximal difference of D-Glc before and during 2nd ischemia (brain slices; average ± SD, n=3): 4.6 ± 0.3 mM
Maximal difference of D-Glc before and during 2nd ischemia (brain slices; individual animals): 4.9 mM and 4.4 mM and 4.5 mM
D-Glc after 2nd ischemic condition (brain slices; average ± SD, n=3): 9.3 ± 1.1 mM
D-Glc after 2nd ischemic condition (brain slices; individual animals): 10.8 mM and 8.8 mM and 8.2 mM
D-Glc in between 2nd and 3rd ischemic conditions (brain slices; group K, animal 3): 8.3 mM
Minimum D-Glc during 3rd ischemia (brain slices; group L, animal 3, 64 min ischemia): 1.2 mM
Maximal difference of D-Glc before and during 3rd ischemia (brain slices; group L′, animal 3): 7.1 mM
D-Glc after 3rd ischemic condition (brain slices; group M, animal 3): 9.1 mM
SMILES: OC[C@H]1OC(O)[C@H](O)[C@@H](O)[C@@H]1O (stereo partly drawn) [D-Glc, [6,6-D2]D-glucose]

time for return to baseline level upon reperfusion (brain slices; after 1st ischemic condition): ≤ 8 min
time of first observation of D-Lac signal (brain slices; after D-Glc administration): ≤ 8 min
time for D-Lac to reach plateau (brain slices; after D-Glc administration, n=3): 12 to 14 min
increase in D-Lac concentration (brain slices; both ischemic conditions, n=6): 5.5 ± 1.1 mM
D-Lac level without perfusion arrest (brain slices; control experiment, no ischemic conditions): constant throughout
D-Lac before 1st ischemia (brain slices; average ± SD, n=3): 0.9 ± 0.4 mM
D-Lac before 1st ischemia (brain slices; individual animals): 0.4 mM and 1.02 mM and 1.4 mM
Maximal D-Lac during 1st ischemia (brain slices; average ± SD, n=3): 5.1 ± 1.3 mM
Maximal D-Lac during 1st ischemia (brain slices; individual animals): 4.8 mM and 3.7 mM and 6.8 mM
D-Lac in between ischemic conditions (brain slices; average ± SD, n=3): 1.1 ± 0.3 mM
D-Lac in between ischemic conditions (brain slices; individual animals): 0.67 mM and 1.29 mM and 1.41 mM
Maximal D-Lac during 2nd ischemia (brain slices; average ± SD, n=3): 5.91 ± 0.12 mM
Maximal D-Lac during 2nd ischemia (brain slices; individual animals): 5.85 mM and 6.07 mM and 5.80 mM
D-Lac after 2nd ischemic condition (brain slices; average ± SD, n=3): 1.6 ± 0.4 mM
D-Lac after 2nd ischemic condition (brain slices; individual animals): 1.08 mM and 1.50 mM and 2.16 mM
Maximal D-Lac during 3rd ischemia (brain slices; group N, animal 3, 64 min ischemia): 10.2 mM
D-Lac after 3rd ischemia (brain slices; group O, animal 3): 2.7 mM
D-Lac signal in medium without brain slices relative to D-Lac in NMR tube with slices (brain slices; perfusion medium, five h, no perfusion arrest): 2.2%
SMILES: [2H]C([2H])C(O)C(=O)O [D-Lac, [3,3-D2]lactate]
D-Lac accumulation within the cells due to ischemic conditions (brain slices; after 2nd reperfusion vs before and between ischemic conditions): did not accumulate within the cells due to the ischemic conditions

T1 relaxation time of deuterons at D site ([1]; aliphatic, 16-17 °C): 48 ms
T1 relaxation time of deuterons at D site ([1]; aromatic, 16-17 °C): 43 ms
SMILES: N[C@@H](Cc1ccc(O)cc1)C(=O)O [[D7]tyrosine]

T1 relaxation time of deuterons at D site [1, 5]: 389 ms
T1 relaxation time of deuterons at D site [1, 6]: 396 ms
T1 relaxation time of deuterons at D site ([1]; position 3 (aliphatic), 16-17 °C): 382 ms
SMILES: C[N+](C)(C)CCO [[D13]choline bromide]

T1 relaxation time of deuterons at D site ([1]; aliphatic + ring, 20 °C): 56 ms
SMILES: OC[C@H]1OC(O)[C@H](O)[C@@H](O)[C@@H]1O (some centres unmarked) [[^13C6, D7]glucose]

T1 relaxation time of deuterons at D site ([1]; aliphatic, 16-17 °C): 45 ms
T1 relaxation time of deuterons at D site ([1]; aromatic, 16-17 °C): 45 ms
SMILES: N[C@@H](Cc1ccc(O)cc1)C(=O)O [[^13C9, D7, ^15N]tyrosine]

Continued, compound first:

SMILES: [2H]O [HDO]
HDO T1 ([1]; HDO in the solution of [13C6, D7]glucose, 20 °C): 279 ms
HDO T1 ([1]; HDO in the solution of the compound on that line, 16-17 °C): 420 ms and 437 ms and 422 ms and 410 ms
HDO's T1 ([1]; summary of Table 1): ca. 400 ms

SMILES: C[N+](C)(C)CCO [[2-^13C,1,1,2,2-D4]choline chloride]
T1 relaxation time of deuterons at D site [1, 5]: 422 ms
T1 relaxation time of deuterons at D site [1, 6]: 404 ms

SMILES: [2H]C([2H])(O)[C@H]1OC(O)C[C@@H](O)[C@@H]1O (stereo partly drawn) [[D2]DDG, [6,6-D2]2-deoxy-D-glucose]
concentration ([2]; n=1, read-out: concentration in the liver): 400 µM
concentration ([2]; n=2, read-out: concentration in the brain): 1190 µM
adverse effects [3]: no adverse effects
adverse effects [4]: no adverse effects

SMILES: [2H]C1(O)O[C@]([2H])(C([2H])([2H])O)[C@@]([2H])(O)[C@]([2H])(O)C1([2H])[2H] (stereo partly drawn) [[D8]DDG, [1,2,2,3,4,5,6,6-D8]2-deoxy-D-glucose]
adverse effects [3]: no adverse effects
adverse effects [4]: no adverse effects
